Tests used:
PDK1 = biological target: T1, PDK1 (Homo sapiens, UniProt O15530); experiment: IC50 PDK1 (cell); type: cell-based
T1 construct: endogenous in cells; host or cells: commercially available colon carcinoma, ovary, prostate or breast cell lines (none named)
T1 sequence (O15530 1-556): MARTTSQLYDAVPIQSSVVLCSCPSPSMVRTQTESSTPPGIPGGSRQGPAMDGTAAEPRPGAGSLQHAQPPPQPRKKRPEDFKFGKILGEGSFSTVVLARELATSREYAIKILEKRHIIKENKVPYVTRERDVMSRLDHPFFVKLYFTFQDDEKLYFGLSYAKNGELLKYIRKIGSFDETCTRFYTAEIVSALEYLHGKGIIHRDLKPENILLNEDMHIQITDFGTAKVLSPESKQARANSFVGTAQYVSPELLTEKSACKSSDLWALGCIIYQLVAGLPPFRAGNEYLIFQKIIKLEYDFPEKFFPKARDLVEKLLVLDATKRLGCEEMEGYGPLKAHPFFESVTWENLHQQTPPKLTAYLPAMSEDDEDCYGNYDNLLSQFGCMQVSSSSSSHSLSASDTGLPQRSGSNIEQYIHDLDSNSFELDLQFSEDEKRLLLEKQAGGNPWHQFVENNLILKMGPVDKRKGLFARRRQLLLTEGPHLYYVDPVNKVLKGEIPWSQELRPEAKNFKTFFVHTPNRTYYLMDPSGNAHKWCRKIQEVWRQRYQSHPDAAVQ
Protocol: The cells are sown in a suitable cell density in microtitre plates (96-well format) and the test substances are added in the form of a concentration series. After four further days of cultivation in serum-containing medium, the tumour cell proliferation/tumour cell vitality can be determined by means of an Alamar Blue test system. A defined number of cells (for example 2000 cells) per culture/well in a volume of 180 μl of culture medium are sown in microtitre plates (96 well cell-culture plates) using a multichannel pipette. The cells are subsequently cultivated in a CO2 incubator (37° C. and 10% CO2). The test substances are dissolved, for example, in DMSO and subsequently employed in corresponding concentration (if desired in a dilution series) in the cell culture medium. The dilution steps can be adapted depending on the efficiency of the active ingredients and the desired spread of the concentrations. Cell culture medium is added to the test substances in corresponding concentrations. The addition of the test substances to the cells can take place on the same day as the sowing of the cells. To this end, in each case 20 μl of substance solution from the predilution plate are added to the cultures/wells. The cells are cultivated for a further 4 days at 37° Celsius and 10% CO2. In each case, 20 μl of Alamar Blue reagent are added per well, and the microtitre plates are incubated, for example, for a further seven hours in a CO2 incubator (at 37° C. and 10% CO2). The plates are measured in a reader with a fluorescence filter at a wavelength of 540 nm. The plates can be shaken gently immediately before the measurement. The absorbance value of the medium control (no cells and test substances used) is subtracted from all other absorbance values. The controls (cells without test substance) are set equal to 100 percent, and all other absorbance values are set in relation thereto (for example in % of control): Calculation: 100*(value with cells and test substance−value of medium control)/(value with cells−value of medium control) IC50 values (50% inhibition) are determined with the aid of statistics programs, such as, for example, RS1.

IRAK-4 = biological target: T2, IRAK-4 (Homo sapiens, UniProt Q9NWZ3); experiment: Test for the inhibition of IRAK4 (flashplate, 33P-ATP); type: biochemical; settings: enzyme
T2 construct: His6 (N); Dr.Jaekel
T2 sequence (Q9NWZ3 1-460): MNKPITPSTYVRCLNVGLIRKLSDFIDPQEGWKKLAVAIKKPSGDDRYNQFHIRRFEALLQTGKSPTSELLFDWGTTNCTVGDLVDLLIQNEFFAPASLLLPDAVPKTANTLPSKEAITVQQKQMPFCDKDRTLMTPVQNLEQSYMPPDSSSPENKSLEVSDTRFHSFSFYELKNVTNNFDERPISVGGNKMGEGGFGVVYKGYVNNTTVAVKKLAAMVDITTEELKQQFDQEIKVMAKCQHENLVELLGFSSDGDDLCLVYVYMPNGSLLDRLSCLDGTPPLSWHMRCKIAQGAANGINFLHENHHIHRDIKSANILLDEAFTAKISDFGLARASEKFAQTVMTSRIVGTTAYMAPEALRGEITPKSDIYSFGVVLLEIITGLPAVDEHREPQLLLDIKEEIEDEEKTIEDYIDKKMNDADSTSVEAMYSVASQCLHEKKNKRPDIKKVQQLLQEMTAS
How it was run: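 His6-IRAK4 (7.3 nM) with biotinylated STK substrate 1 peptide (300 nM) and 10 μM ATP spiked with ^33P-ATP, incubated 180 min at 22° C. Incorporated radioactivity counted; blank from 1 μM staurosporine subtracted, activity expressed as % of no-compound control, IC50 by statistical fit.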

| IC50 (PDK1) | IC50 (IRAK-4) | Compound |
| --- | --- | --- |
| > 10 µM | 0.1 to 10 µM | Cn1cc(-c2cnc(N)c(-c3nc4ccc(C(=O)NCCc5ccc(F)c(F)c5)cc4[nH]3)c2)cn1 [Compound A128, N-[2-(3,4-difluorophenyl)ethyl]-2-[2-amino-5-(1-methyl-1H-pyrazol-4-yl)pyridin-3-yl]-3H-benzimidazole-5-carboxamide] |
| 0.1 to 10 µM | 0.1 to 10 µM | Cn1cc(-c2cnc(N)c(-c3nc4cccc(CO)c4[nH]3)c2)cn1 [Compound A52] |
| 0.1 to 10 µM | > 10 µM | CC1CC(=O)NN=C1c1ccc2nc(-c3cc(-c4cnn(C)c4)cnc3N)[nH]c2c1 (racemic) [Compound A1, 6-{2-[2-amino-5-(1-methyl-1H-pyrazol-4-yl)pyridin-3-yl]-3H-benzimidazol-5-yl}-5-methyl-4,5-dihydro-2H-pyridazin-3-one] |
| > 10 µM | 0.001 to 0.1 µM | COc1ccc2nc(-c3cc(-c4ccc(C(=O)NC5CCN(C)CC5)s4)cnc3N)[nH]c2c1 [Compound A133, N-(1-Methylpiperidin-4-yl)-5-[6-amino-5-(6-methoxy-1H-benzimidazol-2-yl)pyridin-3-yl]thiophene-2-carboxamide] |
| > 10 µM | 0.001 to 0.1 µM | COc1ccc2nc(-c3cc(-c4cnn(C5CCNCC5)c4)cnc3N)[nH]c2c1 [Compound A92, 3-(6-Methoxy-1H-benzimidazol-2-yl)-5-(1-piperidin-4-yl-1H-pyrazol-4-yl)pyridin-2-ylamine] |
| > 10 µM | 0.1 to 10 µM | COc1ccc2nc(-c3cc(-c4ccsc4)cnc3N)[nH]c2c1 [Compound A144, 3-(6-methoxy-1H-benzimidazol-2-yl)-5-thiophen-3-ylpyridin-2-ylamine] |
| > 10 µM | 0.1 to 10 µM | COc1ccc2nc(-c3cc(-c4cnn(C)c4)cnc3N)[nH]c2c1 [Compound A43] |

From US8648201B2, “Aminopyridine derivatives for treating tumors and inflammatory diseases” (MERCK PATENT GmbH, priority 2009, dated 2014)
